Reference: patent US20200085047A1, “Use of an Acyclic Picolinamide Compound as a Fungicide for Control of Phytopathogenic Fungi in Vegetables” (Dow AgroSciences LLC, priority 2017, published 2020)

Experiments:
Type in all cases: in vivo
Alternaria solani = assay: Field assessment of Alternaria solani (ALTESO) on tomato, trial 1 (inoculated); details: for Percent disease control on tomato fruits (AUDPC), Trial 1, 5% EC: 5% EC + Agnique BP420, fruits; for Percent disease control on tomato leaves (AUDPC), Trial 1, 5% EC: 5% EC + Agnique BP420, leaves; for Percent disease control on tomato fruits (AUDPC), Trial 1, 10% SC: 10% SC + Agnique BP420, fruits; for Percent disease control on tomato leaves (AUDPC), Trial 1, 10% SC: 10% SC + Agnique BP420, leaves
Protocol: Field Assessment of Alternaria solani (ALTESO) on Tomato:
Assessment of compound I of ALTESO on tomato was performed in two separate field trials. In the first trial, a fungicidal treatment containing Compound I, applied in both a 5% EC and 10% SC formulation and tank mixed with an adjuvant (Agnique BP420, 50% w/w at 0.3% v/v), was sprayed on tomato plants (LYPES) at approximately 60-70 cm in height at rates of 100 and 200 grams of active ingredient per hectare (g ai/ha). The trial was based on five foliar applications at 7 day intervals with inoculation with the early blight pathogen 2 days after the first application. The treatment was part of an experimental trial designed as a randomized complete block with four replications and a plot of approximately 1.5×4 m. Compound I was applied at water volume of 1000 L/ha with an AZO backpack sprayer using compressed air.
Disease severity was recorded as percent diseased area on a random selection of 20 leaves and 20 fruits per plot. Percent control was assessed with 6 evaluations made between 0-35 days after the first application, DAA1. Area under the disease progress curve (AUDPC) was calculated for each plot using the sets of recorded severity data. Relative AUDPC (% control based on AUDPC) was calculated as percent of the nontreated control.

Sclerotinia sclerotiorum = assay: Field assessment of Sclerotinia sclerotiorum (SCLESC) on lettuce, 2 day protectant; details: 5% EC + Trycol
Text: Field Assessment of Sclerotinia sclerotiorum (SCLESC) on Lettuce:
A fungicidal treatment containing a 5% EC formulation of compound I plus an adjuvant (Trycol, 50% w/w at 0.2% v/v), was sprayed on head lettuce plants (LACSC) twice, the first application at the heading stage 36 days after planting, and the second application 7 days later. Formulations of compound I were applied at rates of 50, 100, and 150 grams of active ingredient per hectare (g ai/ha). The experimental plots were inoculated with sclerotinia rot pathogen 2 days after the first application. The treatment was part of an experimental trial designed as a randomized complete block with four replications and a plot of approximately 2×1 m, with formulations of compound I being applied at water volume of 800 L/ha.
Disease infection percentage was calculated by the equation (stem lesion lengths)/(total stem lengths)×100% per plant (6 plants per plot randomly). Sclerotinia rot infection was assessed four times, 7 days after application A (DAAA) plus 7, 14 and 21 DAAB. Area under the disease progress curve (AUDPC) was calculated for each plot using the sets of recorded visual infection data. Relative AUDPC (% control based on AUDPC) was calculated as percent of the nontreated control.

Colletotrichum coccodes = assay: Field assessment of Colletotrichum coccodes (COLLCA) in tomato; details: SC
Text: Field Assessment of Colletotrichum Coccodes (COLLCA) in Tomato:
A fungicidal treatment containing Compound I, applied in an SC formulation (MSO built-in) and tank mixed with an adjuvant (Agnique BP-420, 50% w/w at 0.2% v/v or Adsee C80W 80%), was sprayed on tomato plants (LYPES, Roma VS Saladette type variety) at growth stage 12 in vegetative growth at rates of 50, 75, 100, and 150 grams of active ingredient per hectare (g ai/ha). The experimental plots were run with natural infestation of the anthracnose pathogen and supplemented with additional inoculum about one day after the 1st application. The treatment was part of an experimental trial designed as a randomized complete block (RCB) with four replications and a plot of approximately 6.67×30 ft. Compound I was applied at water volume of 40 gal/acre, using a backpack sprayer (carbon dioxide (CO2), 8004VS FF nozzles) and pressurized at 38 psi.
Percent leaf severity was assessed three times during the trial (0-23 days after application 1). Area under the disease progress curve (AUDPC) was calculated for each plot using the recorded leaf severity data. Relative AUDPC (% control based on AUDPC) was calculated as percent of the untreated control.

Mycovellosiella fulva = assay: Field assessment of Mycovellosiella fulva (FULVFU) on tomato, curative; details: 10% SC; for Percent control based on AUDPC, FULVFU, adjuvant II: Agnique BP420 (50% w/w at 0.3% v/v); for Percent control based on AUDPC, FULVFU, adjuvant I: no adjuvant
Text: Field assessment of Mycovellosiella fulva (FULVFU) on tomato:
A 10% SC formulation of compound I was tanked mixed with four different adjuvants: Agnique BP420 (50% w/w at 0.3% v/v); Trycol (50% w/w at 0.1% v/v); Ethomeen T18H (50% w/w at 0.2% v/v); and Phase II (50% w/w at 0.2% v/v). A fungicidal treatment containing formulations of compound I, either alone or with adjuvants, was sprayed on tomato plants four times, the first application approximately 3 months after planting, with the following three applications in 7-10 day intervals. Formulations of compound I were applied at rates of 50, 100, 150 and 200 grams of active ingredient per hectare (g ai/ha). The experimental plots were inoculated with the leaf mold pathogen 7 days before the first application (curative). The treatment was part of an experimental trial designed as a randomized complete block with four replications and a plot of approximately 2.5×1.4 m. Formulations of compound I were applied at water volume of 675 L/ha.
Disease severity was recorded as a percentage of visual diseased foliage (6 random plants per plot). Tomato leaf mold infection was assessed five times at 7 days after the first application (7 DAAA), 7 DAAB, 5 DAAC, followed by 7 and 12 DAAD. Area under the disease progress curve (AUDPC) was calculated for each plot using the sets of recorded severity data. Relative AUDPC (% control based on AUDPC) was calculated as percent of the nontreated control.

COc1ccnc(C(=O)N[C@@H](C)C(=O)O[C@@H](C)C(c2ccc(F)cc2)c2ccc(F)cc2)c1OC(C)=O [Compound I, (S)-1,1-bis(4-fluorophenyl)propan-2-yl (3-acetoxy-4-methoxypicolinoyl)-L-alaninate]
Percent disease control on tomato fruits (AUDPC), Trial 1, 5% EC (Alternaria solani; 100 g ai/ha): A (76-100)
Percent disease control on tomato leaves (AUDPC), Trial 1, 5% EC (Alternaria solani; 100 g ai/ha): A (76-100)
Percent disease control on tomato fruits (AUDPC), Trial 1, 10% SC (Alternaria solani; 100 g ai/ha): A (76-100)
Percent disease control on tomato leaves (AUDPC), Trial 1, 10% SC (Alternaria solani; 100 g ai/ha): A (76-100)
Percent disease control on tomato fruits (AUDPC), Trial 1, 5% EC (Alternaria solani; 200 g ai/ha): A (76-100)
Percent disease control on tomato leaves (AUDPC), Trial 1, 5% EC (Alternaria solani; 200 g ai/ha): A (76-100)
Percent disease control on tomato fruits (AUDPC), Trial 1, 10% SC (Alternaria solani; 200 g ai/ha): A (76-100)
Percent disease control on tomato leaves (AUDPC), Trial 1, 10% SC (Alternaria solani; 200 g ai/ha): A (76-100)
Percent control based on AUDPC, SCLESC 2 DP (Sclerotinia sclerotiorum; 50 g ai/ha): B (51-75)
Percent control based on AUDPC, SCLESC 2 DP (Sclerotinia sclerotiorum; 100 g ai/ha): A (76-100)
Percent control based on AUDPC, SCLESC 2 DP (Sclerotinia sclerotiorum; 150 g ai/ha): A (76-100)
Percent Control of COLLCA (AUDPC) (Colletotrichum coccodes; Compound I 50 g/ha, Agnique BP420, 200 mL/ha): 67%
Percent Control of COLLCA (AUDPC) (Colletotrichum coccodes; Compound I 50 g/ha, MSO, 100 g/ha): 46.0%
Percent Control of COLLCA (AUDPC) (Colletotrichum coccodes; Compound I 75 g/ha, Agnique BP420, 2300 mL/ha): 91.1%
Percent Control of COLLCA (AUDPC) (Colletotrichum coccodes; Compound I 75 g/ha, MSO, 150 g/ha): 75.5%
Percent Control of COLLCA (AUDPC) (Colletotrichum coccodes; Compound I 100 g/ha, Adsee C80W 80%, 250 g/ha): 57.3%
Percent Control of COLLCA (AUDPC) (Colletotrichum coccodes; Compound I 100 g/ha, Agnique BP420, 400 mL/ha): 91.0%
Percent Control of COLLCA (AUDPC) (Colletotrichum coccodes; Compound I 100 g/ha, MSO, 200 g/ha): 92.6%
Percent Control of COLLCA (AUDPC) (Colletotrichum coccodes; Compound I 150 g/ha, Agnique BP420, 600 mL/ha): 95.7%
Percent Control of COLLCA (AUDPC) (Colletotrichum coccodes; Compound I 150 g/ha, MSO, 300 g/ha): 95.3%
Percent control based on AUDPC, FULVFU, adjuvant II (Mycovellosiella fulva; 50 g ai/ha): A (76-100)
Percent control based on AUDPC, FULVFU, adjuvant I (Mycovellosiella fulva; 50 g ai/ha): C (26-50)
Percent control based on AUDPC, FULVFU, adjuvant II (Mycovellosiella fulva; 100 g ai/ha): A (76-100)
Percent control based on AUDPC, FULVFU, adjuvant IV (Mycovellosiella fulva; 100 g ai/ha, Ethomeen T18H (50% w/w at 0.2% v/v)): B (51-75)
Percent control based on AUDPC, FULVFU, adjuvant V (Mycovellosiella fulva; 100 g ai/ha, Phase II (50% w/w at 0.2% v/v)): A (76-100)
Percent control based on AUDPC, FULVFU, adjuvant III (Mycovellosiella fulva; 100 g ai/ha, Trycol (50% w/w at 0.1% v/v)): A (76-100)
Percent control based on AUDPC, FULVFU, adjuvant I (Mycovellosiella fulva; 100 g ai/ha): C (26-50)
Percent control based on AUDPC, FULVFU, adjuvant II (Mycovellosiella fulva; 150 g ai/ha): A (76-100)
Percent control based on AUDPC, FULVFU, adjuvant II (Mycovellosiella fulva; 200 g ai/ha): A (76-100)
